In assay [1] the test system is Gastric necrosis (gastric oedema and haemorrhagic injury). Kind of assay: Gastric necrosis induced by acidic ethanol (cytoprotective activity). The note with it: for ED50: Rattus norvegicus, po, 1 h, acidic ethanol, p.o. In kind it is in vivo, Female RG-Wistar rats. On the procedure: Water was given ad libitum. […] One hour later the animals were killed by overdosing with ether. Stomachs were removed and opened along the major curvature. After cleaning the wet weight of the stomachs was determined, and the difference between the wet weight obtained and the wet weight of the stomachs of untreated (control) animals was calculated, in order to determine the degree of gastric oedema. The stomachs were then dried and the gastic lesions were observed visually. Lengths of lesions were measured in millimeters. (Derelanko and Long, Proc. Soc. Exp. Biol. and Med. 166, 394 (1981)), and the length of the average lesions per stomach was given. Degree of cytoprotection was expressed in % related to the control. The statistical evaluation of the results was carried out by the Student test.

Another assay concerns Antral ulcer. Kind of assay: Indomethacin-induced antral ulceration. In kind it is in vivo, Female RG-Wistar rats. On the procedure: Indomethacin-induced antral and intestinal ulceration
Female RG-Wistar rats weighing 120 to 150 g. each were fasted for 24 hours. Water was added ad libitum. The animals were then given access to food for one hour, and 30 minutes after the administration of the test compounds a 15-mg./kg. oral dose of indomethacin was administered. 24 hours after indomethacin treatment the animals were killed by overdose of ether. Stomachs and the entire intestine were removed, the stomachs were opened along the main curvature, and the total ulcerated area (ulceration index, mm^2) was determined.

The next assay relates to Intestinal ulcer. Kind of assay: Indomethacin-induced intestinal ulceration (inflation technique). In kind it is in vivo, Female RG-Wistar rats.
The next assay relates to Gastric acid secretion. Kind of assay: Gastric acid secretion inhibiting activity on Shay rats. It is filed as in vivo, Female H-Wistar rats. On the procedure: Gastric acid secretion inhibiting activity on Shay rats (Gastroenterology, 5, 43-46 (1945)
Female H-Wistar rats weighing 120-150 g each were fasted for 24 hours. Water was added ad libitum. The pylorus of the animals was ligated under light ether narcosis. The test drugs were administered during the operation, partially orally, partially intraperitoneally. 4 hours after treatment the animals were killed by an overdose of ether. The stomach was excised and cut along the large curvature. The volume and the pH of the contents were determined and in each case the HCl production was determined by titration.

In assay [2] the test system is Aspirin-induced gastric ulceration. Briefly: Inhibition of aspirin-induced gastric ulceration. In kind it is in vivo, Female H. Wistar rats. On the procedure: Inhibition of aspirin-induced gastric ulceration
Female H. Wistar rats weighing 120 to 150 g each were fasted for 24 hours. Water was given ad libitum. The stomach ulcer was induced by oral administration of aspirin in a dose of 100 mg./kg. (in Tween 80 suspension). The test was given simultaneously with the administration of aspirin, orally. The animals were killed by overdose if ether, 4 hours after treatment. The stomach was excised and cut along the large curvature. The red-brownish erosions on the glandular surface were counted. When evaluating the test results, the number of ulcers per stomach and its proportion to the number of ulcers found in the stomachs of control animals (inhibition of ulceration) were determined.

Setting [3] is: read-out: Gastric oedema inhibition ED50.
Setting [4] is: read-out: Haemorrhagic injury inhibition ED50.
The mark [5] stands for this setting: indomethacin 15 mg./kg. p.o. with 50 mg./kg. p.o. test compound.
Setting [6] is: indomethacin 15 mg./kg. p.o. with 25 mg./kg. p.o. test compound.
Setting [7] is: indomethacin 15 mg./kg. p.o. with 25 mg./kg. p.o. test compound, N 20.
The mark [8] stands for this setting: indomethacin 15 mg./kg. p.o. with 5 mg./kg. p.o. test compound.

Counter-ions that a name gives are not always drawn. Like-named read-outs stand apart in the source and are kept apart here.

The term ED50 denotes the midpoint of the dose-response relation. For `NCCSc1ncccc1C(=O)c1ccc(Cl)cc1` [C, 2-[(2-aminoethyl)-thio]-3-(p-chlorobenzoyl)-pyridine.HCl], the ED50 in assay [1] (setting [3]) is 10 mg/kg; in assay [1] (setting [4]), 15 mg/kg.
Consider `CN/C(=N/CCSCc1nc[nH]c1C)NC#N` [cimetidine, reference compound], for which the “Antral ulcer, ulceration index” value in the assay with Antral ulcer (setting [5]) is on record as 14.7 mm^2 /stomach. Also, in the assay with Antral ulcer (indomethacin 15 mg./kg. p.o. with 50 mg./kg. p.o. test compound, N 10), the “Antral ulcer, rats having no ulcer” value was determined as 2. In assay [1] (25 mg./kg. p.o.), the Haemorrhagic injury is 82 ± 21 mm and the Haemorrhagic injury inhibition worked out at 2%. This compound gave an Oedema in assay [1] (25 mg./kg. p.o., N 8) of 441 ± 82 mg. Further, in assay [1] (100 mg./kg. p.o.), the Haemorrhagic injury was determined as 42 ± 13 mm, the Haemorrhagic injury inhibition is on record as 46% and the Oedema inhibition came out at 21%. The same compound had an Oedema in assay [1] (100 mg./kg. p.o., N 8) of 301 ± 42 mg. The “Intestinal ulcer, tensile strength 24 hours after indomethacin treatment” value (“Intestinal ulcer” below) with Intestinal ulcer (setting [5]) came out at 161 ± 8 mmHg.
`CC(=O)N(CCSc1ncccc1C(=O)c1ccccc1)C(C)=O` [B, 3-benzoyl-2-{[2-(N,N-diacetylamino)-ethyl]-thio}-pyridine]: the median effective dose (ED50) worked out at 1 mg/kg in assay [1] (setting [3]) and 2 mg/kg in assay [1] (setting [4]).
The corresponding values for `CCCc1cc(C(=O)c2ccccc2)cc(SCCN)n1` [Compound E, 2-[(2-aminoethyl)-thio]-4-benzoyl-6-propylpyridine.2 HCl] are 20 mg/kg and 25 mg/kg.
The corresponding values for `Cc1ccc(C)c(C(=O)c2cccnc2SCCN)c1` [D, 2-[(2-aminoethyl)-thio]-3-(2,5-dimethylbenzoyl)pyridine.HCl] are 10 mg/kg and 10 mg/kg.
Take `CN1CCN(CC(=O)N2c3ccccc3C(=O)Nc3cccnc32)CC1` [Pirenzepine, reference compound]: in the assay on Antral ulcer (setting [6]), the “Antral ulcer, ulceration index” value came to 12.0 mm^2 /stomach. Besides, in the assay on Antral ulcer (setting [7]), the “Antral ulcer, rats having no ulcer” value stood at 5. For the same compound, the “Intestinal ulcer” value in the assay on Intestinal ulcer (setting [6]) is 152 ± 8 mmHg.
Turning to `NCCSc1ncccc1C(=O)c1ccccc1` [Compound A, 2-[(2-aminoethyl)-thio]-3-benzoyl-pyridine.HCl], the “Antral ulcer, ulceration index” value is given as 18.9 mm^2 /stomach in the assay on Antral ulcer (setting [8]) and 4.0 mm^2 /stomach in the assay with Antral ulcer (setting [6]). Besides, the “Antral ulcer, rats having no ulcer” value with Antral ulcer (indomethacin 15 mg./kg. p.o. with 5 mg./kg. p.o. test compound, N 15) is listed as 3; in the assay on Antral ulcer (setting [7]), 12. In addition, the “Secretion HCl inhibition” value is given as 37% in the assay on Gastric acid secretion (5 mg./kg. p.o.); 11% in the assay on Gastric acid secretion (6 mg./kg. i.p.); 38% with Gastric acid secretion (10 mg./kg. p.o.); 65% in the assay with Gastric acid secretion (12 mg./kg. i.p., p < 0.01); 34% with Gastric acid secretion (20 mg./kg. p.o.); 100% in the assay with Gastric acid secretion (25 mg./kg. i.p.). For the same compound, the “Secretion HCl inhibition” value in the assay with Gastric acid secretion (40 mg./kg. p.o., p < 0.01) is given as 70%. The “Secretion HCl/4 hours” value in the assay with Gastric acid secretion (5 mg./kg. p.o., N 5) was determined as 357 ± 35 μmol/100 g body weight; in the assay with Gastric acid secretion (6 mg./kg. i.p., N 5), 505 ± 29 μmol/100 g body weight; with Gastric acid secretion (10 mg./kg. p.o., N 15), 350 ± 38 μmol/100 g body weight; in the assay on Gastric acid secretion (12 mg./kg. i.p., N 10), 200 ± 30 μmol/100 g body weight; in the assay on Gastric acid secretion (20 mg./kg. p.o., N 15), 372 ± 40 μmol/100 g body weight; in the assay with Gastric acid secretion (25 mg./kg. i.p., N 5) it was 0 μmol/100 g body weight. Further, in the assay on Gastric acid secretion (40 mg./kg. p.o., N 5), the “Secretion HCl/4 hours” value was found to be 124 ± 27 μmol/100 g body weight. Further, in the assay with Gastric acid secretion (selectivity of cytoprotection over acid secretion inhibition), the “higher dose at which gastric acid secretion inhibiting activity was observed (relative to gastrocytoprotective dose)” value is reported as “about 500 times”. In addition, the Haemorrhagic injury came to 48 ± 19 mm in assay [1] (0.05 mg./kg. p.o.), 38 ± 18 mm in assay [1] (0.1 mg./kg. p.o.), 5 ± 1.5 mm in assay [1] (1.0 mg./kg. p.o.) and 6 ± 3 mm in assay [1] (10.0 mg./kg. p.o.). In addition, the Haemorrhagic injury inhibition in assay [1] (0.05 mg./kg. p.o.) worked out at 45%; in assay [1] (0.1 mg./kg. p.o., p < 0.05), 56%; in assay [1] (1.0 mg./kg. p.o., p < 0.01), 96%; in assay [1] (10.0 mg./kg. p.o., p < 0.01) it was 94%. Besides, the Oedema inhibition in assay [1] (0.05 mg./kg. p.o.) is given as 19%; in assay [1] (0.1 mg./kg. p.o., p < 0.05), 45%; in assay [1] (10.0 mg./kg. p.o., p < 0.01) it was 95%. Also, the Oedema was 307 ± 42 mg in assay [1] (0.05 mg./kg. p.o., N 8); 209 ± 51 mg in assay [1] (0.1 mg./kg. p.o., N 10); 72 ± 28 mg in assay [1] (1.0 mg./kg. p.o., N 12); 22 ± 12 mg in assay [1] (10.0 mg./kg. p.o., N 12). The ED50 was found to be 0.2 mg/kg in assay [1] (setting [3]) and 0.1 mg/kg in assay [1] (setting [4]). Further, the “gastrocytoprotective activity after indomethacin pre-treatment” value in assay [1] (indomethacin pre-treatment) is on record as “not eliminated by indomethacin pre-treatment”. In addition, the “gastrocytoprotective activity, selectivity in words” value in assay [1] (versus gastric acid secretion inhibition) is on record as “selective gastrocytoprotective activity”. The “Inhibition (of ulceration)” value stood at 38% in assay [2] (aspirin 100 + test compound 1 mg./kg.p.o.), 47% in assay [2] (aspirin 100 + test compound 2 mg./kg.p.o.) and 76% in assay [2] (aspirin 100 + test compound 10 mg./kg.p.o.). In addition, the Ulcer/Stomach in assay [2] (aspirin 100 + test compound 1 mg./kg.p.o., N 20) is listed as 9.4 + 4.1; in assay [2] (aspirin 100 + test compound 2 mg./kg.p.o., N 10), 8.0 + 3.0; in assay [2] (aspirin 100 + test compound 10 mg./kg.p.o., N 10) it was 3.7 + 4.5. Moreover, the “Intestinal ulcer” value with Intestinal ulcer (setting [8]) stood at 162 ± 14 mmHg; in the assay on Intestinal ulcer (setting [6]), 198 ± 9 mmHg.

These data come from US4691017A, “2-hydroxy-and 2-halo-ethylthiopyridine intermediates for preparing antiulcer compounds” (Richter Gedeon Vegyeszeti Gyar Rt., priority 1984, dated 1987).
